Where two headings read alike, the source gives them in different places.
How the values were obtained:
[1] = molecular target: human CB1 receptor (hCB1) (Homo sapiens, UniProt P21554); assay: cell-based; type: cell-based; details: for +/− HCB1: agonist or inverse agonist at hCB1
Outline: (§1)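 Readout: LANCE TR-FRET cAMP, back-calculated from a concurrent standard curve and scaled between forskolin-only and forskolin + 1 μM CP55,940 wells. EC50 and intrinsic activity came from four-parameter fits.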

rat CB2 receptor (rCB2) = molecular target: T1, rat CB2 receptor (rCB2) (Rattus norvegicus, UniProt Q9QZN9); assay: cell-based; type: cell-based; details: for +/− RCB2: agonist or inverse agonist at rCB2
T1 sequence (Q9QZN9 1-360): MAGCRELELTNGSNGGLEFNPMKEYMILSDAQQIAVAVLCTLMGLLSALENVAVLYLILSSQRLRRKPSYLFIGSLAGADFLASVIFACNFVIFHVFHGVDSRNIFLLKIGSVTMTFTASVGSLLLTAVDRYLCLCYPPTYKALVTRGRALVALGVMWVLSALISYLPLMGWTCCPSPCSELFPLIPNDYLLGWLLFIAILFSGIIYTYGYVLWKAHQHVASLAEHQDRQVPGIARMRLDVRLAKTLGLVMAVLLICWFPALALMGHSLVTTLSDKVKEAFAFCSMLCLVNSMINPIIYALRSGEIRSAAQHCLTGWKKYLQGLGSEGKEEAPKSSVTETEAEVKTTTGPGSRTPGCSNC
Outline: as §1

Sequence of human CB1 receptor (hCB1) (P21554 whole entry): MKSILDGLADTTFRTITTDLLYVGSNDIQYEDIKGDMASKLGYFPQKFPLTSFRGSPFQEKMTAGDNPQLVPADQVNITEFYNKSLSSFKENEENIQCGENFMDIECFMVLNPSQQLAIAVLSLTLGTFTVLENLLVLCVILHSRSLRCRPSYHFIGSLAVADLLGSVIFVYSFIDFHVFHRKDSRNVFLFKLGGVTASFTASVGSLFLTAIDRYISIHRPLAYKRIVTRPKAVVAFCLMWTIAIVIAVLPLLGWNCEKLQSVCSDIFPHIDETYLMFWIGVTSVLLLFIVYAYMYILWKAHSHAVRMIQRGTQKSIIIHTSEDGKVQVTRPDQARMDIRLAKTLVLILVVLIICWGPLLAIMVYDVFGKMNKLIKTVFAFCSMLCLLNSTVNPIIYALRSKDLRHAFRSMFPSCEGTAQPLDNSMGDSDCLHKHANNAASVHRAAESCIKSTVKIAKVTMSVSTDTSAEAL

Row | SMILES | EC50 [1] | +/− RCB2 (rat CB2 receptor (rCB2)) | +/− HCB1 [1] | EC50 (rat CB2 receptor (rCB2)) | EC50 ([1]; groups >100 nM-10 μM and >10 μM, cAMP, CHO-K1 hCB1, read-out: EC50 HCB1)
1 | CNC(=O)[C@H](CC(C)C)NC(=O)c1nc(-c2ccc(F)cc2F)n2c1CN(C)CCC2 [Compound 534, (S)-3-(2,4-difluorophenyl)-8-methyl-N-(4-methyl-1-(methylamino)-1-oxopentan-2-yl)-6,7,8,9-tetrahydro-5H-imidazo[1,5-a][1,4]diazepine-1-carboxamide] | > 10000 nM | + |  |  | 
2 | CNC(=O)[C@H](CC(C)C)NC(=O)c1nc(-c2cccc(F)c2)n2c1CN(C)CCC2 [Compound 531, (S)-3-(3-fluorophenyl)-8-methyl-N-(4-methyl-1-(methylamino)-1-oxopentan-2-yl)-6,7,8,9-tetrahydro-5H-imidazo[1,5-a][1,4]diazepine-1-carboxamide] | > 10000 nM | + |  |  | 
3 | Cc1ccc(-c2nc(C(=O)N[C@H](c3nc(C)no3)C(C)(C)C)c3n2CCCN(C)C3)c(F)c1 [Compound 522, (S)-N-(2,2-dimethyl-1-(3-methyl-1,2,4-oxadiazol-5-yl)propyl)-3-(2-fluoro-4-methylphenyl)-8-methyl-6,7,8,9-tetrahydro-5H-imidazo[1,5-a][1,4]diazepine-1-carboxamide] | > 10000 nM | − |  |  | 
4 | Cc1noc([C@@H](NC(=O)c2nc(-c3ccccc3)n3c2CN(C2CC2)CC3)C(C)(C)C)n1 [Compound 198, (S)-7-cyclopropyl-N-(2,2-dimethyl-1-(3-methyl-1,2,4-oxadiazol-5-yl)propyl)-3-phenyl--5,6,7,8-tetrahydroimidazo[1,5-a]pyrazine-1-carboxamide] | > 10000 nM | − |  |  | 
5 | CNC(=O)[C@@H](NC(=O)c1nc(/C=C/C(C)(C)C)n2c1CN(C)CCC2)C(C)(C)C [Compound 397, (S,E)-N-(3,3-dimethyl-1-(methylamino)-1-oxobutan-2-yl)-3-(3,3-dimethylbut-1-enyl)-8-methyl-6,7,8,9-tetrahydro-5H-imidazo[1,5-a][1,4]diazepine-1-carboxamide] |  | + | + |  | 
6 | CC12CCC(C1)C(C)(C)C2NC(=O)c1nc(-c2ccccc2)n2c1CN(C(=O)c1ccccc1)CC2 (stereo not shown) [Compound 120, 7-benzoyl-3-phenyl-N-(1,3,3-trimethylbicyclo[2.2.1]heptan-2-yl)-5,6,7,8-tetrahydroimidazo[1,5-a]pyrazine-1-carboxamide] | > 10000 nM | + |  |  | 
7 | Cc1nnc([C@@H](NC(=O)c2nc(-c3ccccc3)n3c2CN(CC(C)C)CC3)C(C)(C)C)o1 [Compound 202, (S)-N-(2,2-dimethyl-1-(5-methyl-1,3,4-oxadiazol-2-yl)propyl)-7-isobutyl-3-phenyl-5,6,7,8-tetrahydroimidazo[1,5-a]pyrazine-1-carboxamide] | > 10000 nM | − |  |  | 
8 | Cc1noc([C@@H](NC(=O)c2nc(-c3ccccc3)n3c2CN(C)CCC3)C(C)(C)C)n1 [Compound 521, (S)-N-(2,2-dimethyl-1-(3-methyl-1,2,4-oxadiazol-5-yl)propyl)-8-methyl-3-phenyl-6,7,8,9-tetrahydro-5H-imidazo[1,5-a][1,4]diazepine-1-carboxamide] | > 10000 nM | + |  |  | 
9 | CNC(=O)[C@@H](NC(=O)c1nc(-c2ccc(Br)cc2F)n2c1CN(C)CCC2)C(C)(C)C [Compound 600, (S)-3-(4-bromo-2-fluorophenyl)-N-(3,3-dimethyl-1-(methylamino)-1-oxobutan-2-yl)-8-methyl-6,7,8,9-tetrahydro-5H-imidazo[1,5-a][1,4]diazepine-1-carboxamide] |  |  | + | > 10 µM | 
10 | CN1CCCn2c(-c3cc(Cl)ccc3F)nc(C(=O)N[C@@H](CC(C)(C)C)C(N)=O)c2C1 [Compound 585, (S)-N-(1-amino-4,4-dimethyl-1-oxopentan-2-yl)-3-(5-chloro-2-fluorophenyl)-8-methyl-6,7,8,9-tetrahydro-5H-imidazo[1,5-a][1,4]diazepine-1-carboxamide] |  | + | + |  | 
11 | CNC(=O)[C@@H](NC(=O)c1nc(-c2cccc(C#N)c2)n2c1CN(C)CC2)C(C)(C)C [Compound 260, (S)-3-(3-cyanophenyl)-N-(3,3-dimethyl-1-(methylamino)-1-oxobutan-2-yl)-7-methyl-5,6,7,8-tetrahydroimidazo[1,5-a]pyrazine-1-carboxamide] | > 10000 nM | − |  |  | 
12 | O=C(NC1CCCCC1)c1nc(-c2ccccc2)n2c1CN(C(=O)C1CC1)CC2 [Compound 136, N-cyclohexyl-7-(cyclopropanecarbonyl)-3-phenyl-5,6,7,8-tetrahydroimidazo[1,5-a]pyrazine-1-carboxamide] |  | − |  |  | > 10000 nM
13 | C[C@@H](NC(=O)c1nc(-c2ccccc2)n2c1CNCC2)C(C)(C)C [Compound 26, (R)-N-(3,3-dimethylbutan-2-yl)-3-phenyl-5,6,7,8-tetrahydroimidazo[1,5-a]pyrazine-1-carboxamide] | > 10000 nM |  |  | > 10 µM | 
14 | CNC(=O)[C@@H](NC(=O)c1nc(C(=O)Nc2ccccc2)n2c1CN(C)CC2)C(C)(C)C [Compound 290, (S)-N1-(3,3-dimethyl-1-(methylamino)-1-oxobutan-2-yl)-7-methyl-N3-phenyl-5,6,7,8-tetrahydroimidazo[1,5-a]pyrazine-1,3-dicarboxamide] | > 10000 nM | − |  |  | 
15 | CNC(=O)[C@@H](NC(=O)c1nc(C2=CCCCCC2)n2c1CN(C)CC2)C(C)(C)C [Compound 272, (S,E)-3-cycloheptenyl-N-(3,3-dimethyl-1-(methylamino)-1-oxobutan-2-yl)-7-methyl-5,6,7,8-tetrahydroimidazo[1,5-a]pyrazine-1-carboxamide] |  | + | + |  | 
16 | CNC(=O)[C@H](CC(C)C)NC(=O)c1nc(-c2ccc(F)c(F)c2)n2c1CN(C)CCC2 [Compound 535, (S)-3-(3,4-difluorophenyl)-8-methyl-N-(4-methyl-1-(methylamino)-1-oxopentan-2-yl)-6,7,8,9-tetrahydro-5H-imidazo[1,5-a][1,4]diazepine-1-carboxamide] | > 10000 nM | + |  |  | 
17 | CNC(=O)[C@@H](NC(=O)c1nc(-c2ccccc2)n2c1CN(S(=O)(=O)c1ccccc1)CC2)C(C)(C)C [Compound 96, (S)-N-(3,3-dimethyl-1-(methylamino)-1-oxobutan-2-yl)-3-phenyl-7-(phenylsulfonyl)-5,6,7,8-tetrahydroimidazo[1,5-a]pyrazine-1-carboxamide] | > 10000 nM | − |  |  | 
18 | CCN1CCn2c(-c3ccccc3)nc(C(=O)Nc3ccccc3)c2C1 [Compound 152, 7-ethyl-N,3-diphenyl-5,6,7,8-tetrahydroimidazo[1,5-a]pyrazine-1-carboxamide] | > 10000 nM | − |  |  | 
19 | CNC(=O)[C@@H](NC(=O)c1nc(/C=C/CN2CCCCC2)n2c1CN(C)CCC2)C(C)(C)C [Compound 510, (S,E)-N-(3,3-dimethyl-1-(methylamino)-1-oxobutan-2-yl)-8-methyl-3-(3-(piperidin-1-yl)prop-1-enyl)-6,7,8,9-tetrahydro-5H-imidazo[1,5-a][1,4]diazepine-1-carboxamide] | > 10000 nM | + |  |  | 
20 | CNC(=O)[C@@H](NC(=O)c1nc(-c2ccccc2)n2c1CN(Cc1ccnn1C)CC2)C(C)(C)C [Compound 65, (S)-N-(3,3-dimethyl-1-(methylamino)-1-oxobutan-2-yl)-7-((1-methyl-1H-pyrazol-5-yl)methyl)-3-phenyl-5,6,7,8-tetrahydroimidazo[1,5-a]pyrazine-1-carboxamide] | > 10000 nM |  |  | > 10 µM | 
